According to PubChem BioAssay (NCI):
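A five-concentration, 48-hour dose response in 96-well plates underlies each endpoint, interpolated linearly between surrounding concentrations. The concentration for 50% growth inhibition is given as GI50. The concentration for full growth arrest is given as TGI.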

Columns and labels:
Test in all cases: NCI tumour cell line growth inhibition, 48 h; in the data active = GI50 below about 0.43 µM; inactive = the rest
[1] = tested on: SK-OV-3 ovarian
[2] = tested on: SF-268 CNS
[3] = tested on: LOX IMVI melanoma
[4] = tested on: TK-10 renal
[5] = tested on: BT-549 breast
[6] = tested on: SNB-75 CNS
[7] = tested on: MOLT-4 leukemia
[8] = tested on: UACC-62 melanoma
[9] = tested on: UO-31 renal
[10] = tested on: SF-539 CNS
[11] = tested on: EKVX NSCLC
[12] = tested on: NCI-H522 lung
[13] = tested on: NCI-H23 lung
[14] = tested on: HT29 colon
[15] = tested on: SR leukemia
[16] = tested on: OVCAR-3 ovarian
[17] = tested on: MALME-3M melanoma
[18] = tested on: NCI/ADR-RES ovarian

C=C(C)C1CC[C@@](C)(O)[C@H](C#N)C1 (stereo partly drawn)
> 100 µM: TGI [1] | TGI [2] | TGI [3] | TGI [4] | TGI [5] | TGI [6] | TGI [7] | TGI [8] | TGI [9] | TGI [10] | TGI [11] | TGI [12] | TGI [13] | TGI [14] | TGI [15] | TGI [16] | TGI [17]

O=C(O)CCC(NC(=O)c1ccc(Nc2cnc3cc(C(F)(F)F)ccc3n2)cc1)C(=O)O (stereo not drawn)
> 100 µM: TGI [1] | TGI [2] | TGI [3] | TGI [6] | TGI [18] | TGI [7] | TGI [8] | TGI [9] | TGI [10] | TGI [11] | TGI [12] | TGI [13] | TGI [14] | TGI [16] | TGI [17]

O=C1c2ccccc2C(=O)N1CCCOCc1c[nH]c(=O)[nH]c1=O
> 100 µM: TGI [1] | TGI [2] | TGI [3] | TGI [4] | TGI [6] | TGI [7] | TGI [8] | TGI [9] | TGI [10] | TGI [11] | TGI [12] | TGI [13] | TGI [14] | TGI [16] | TGI [17]

CCCCN=NNc1cn(C2OC(CO)C(O)C2O)c(=O)[nH]c1=O (stereo not drawn)
> 100 µM: TGI [1] | TGI [2] | TGI [3] | TGI [4] | TGI [18] | TGI [7] | TGI [8] | TGI [10] | TGI [11] | TGI [12] | TGI [13] | TGI [14] | TGI [15] | TGI [16] | TGI [17]

C=CCCCCCCCCCP(=O)(c1ccccc1)c1ccc2c(c1)OCCOCCOCCOCCO2 (stereo not drawn)
31.9 µM: TGI [10] | TGI [17]
29.5 µM: TGI [2]
29.4 µM: TGI [8]
24.9 µM: TGI [7]
19.7 µM: TGI [16]
22.8 µM: TGI [15]
24.5 µM: TGI [12]
32.4 µM: TGI [4]
33.1 µM: TGI [6]
29 µM: TGI [3]
34.2 µM: TGI [11]
34.8 µM: TGI [1]
22.7 µM: TGI [9]
29.7 µM: TGI [13]
24.8 µM: TGI [14]

CC[C@H](C)[C@@H]([C@@H](CC(=O)N1CCC[C@H]1[C@H](OC)[C@@H](C)C(=O)NCCc1ccccc1)OC)N(C)C(=O)C(NC(=O)[C@H](C(C)C)N(C)C)C(C)C (stereo partly drawn)
> 10 µM: TGI [2] | TGI [3] | TGI [4] | TGI [5] | TGI [18] | TGI [8] | TGI [9] | TGI [13] | TGI [17]
0.00163 µM: TGI [14]
7.57 µM: TGI [11]
0.000434 µM: TGI [12]
active: GI50 [1] 0.00047 µM
0.000544 µM: TGI [16]
3.48 µM: TGI [1]

Cc1ccc(Nc2cccc3c2C(=O)c2cccc(Nc4ccc(C)cc4S(=O)(=O)O)c2C3=O)c(S(=O)(=O)O)c1
> 100 µM: TGI [1] | TGI [2] | TGI [4] | TGI [6] | TGI [7] | TGI [8] | TGI [9] | TGI [10] | TGI [11] | TGI [12] | TGI [15] | TGI [16] | TGI [17]

COCn1cc(C2=C(C)C(=O)C(C)=C(C)C2=O)cn1
42 µM: TGI [7]
65.9 µM: TGI [15]
40 µM: TGI [16]
32.5 µM: TGI [11]
59.3 µM: TGI [18]
66 µM: TGI [2]
> 100 µM: TGI [4] | TGI [6] | TGI [8] | TGI [9] | TGI [10] | TGI [13] | TGI [14] | TGI [17]

Cc1cc(O)c2c(c1)C(=O)c1c(c(O)cc(O)c1-c1c(O)cc(O)c3c1C(=O)c1cc(C)cc(O)c1C3=O)C2=O
36.6 µM: TGI [10]
21.6 µM: TGI [16]
75.4 µM: TGI [2]
25.4 µM: TGI [8]
45 µM: TGI [14]
65.2 µM: TGI [17]
34.9 µM: TGI [11]
59 µM: TGI [12]
62.6 µM: TGI [1]
152 µM: TGI [18]
15.8 µM: TGI [9]
50.2 µM: TGI [3]
50.8 µM: TGI [7] | TGI [13]
66.1 µM: TGI [6]

CC(=O)OCC1OC(n2c(C)c(C(C)=O)c(-c3ccco3)c(C#N)c2=S)C(OC(C)=O)C(OC(C)=O)C1OC(C)=O (stereo not drawn)
active: GI50 [6] 0.171 µM
> 100 µM: TGI [1] | TGI [2] | TGI [3] | TGI [4] | TGI [18] | TGI [7] | TGI [8] | TGI [10] | TGI [11] | TGI [12] | TGI [13] | TGI [14] | TGI [15] | TGI [16] | TGI [17]
82.1 µM: TGI [6]

C=C1CN=C(Nc2ccc(Cl)cc2)S1
> 10 µM: TGI [7]
> 100 µM: TGI [1] | TGI [2] | TGI [3] | TGI [4] | TGI [6] | TGI [18] | TGI [9] | TGI [10] | TGI [11] | TGI [13] | TGI [14] | TGI [15] | TGI [16] | TGI [17]

O=C(NN1C(=O)CS(=O)(=O)C1c1ccc(Cl)c(Cl)c1)c1ccncc1 (stereo not drawn)
> 71.8 µM: TGI [7]
> 100 µM: TGI [1] | TGI [2] | TGI [3] | TGI [6] | TGI [18] | TGI [8] | TGI [9] | TGI [10] | TGI [11] | TGI [12] | TGI [13] | TGI [14] | TGI [16] | TGI [17]

CC1(C)CC[C@]2(C(=O)O)CC[C@]3(C)C(=CCC4=C5C[C@H](O)[C@H](O)[C@@](C)(CO)[C@@]5(C)CC[C@]43C)[C@@H]2C1
> 100 µM: TGI [1] | TGI [2] | TGI [3] | TGI [4] | TGI [18] | TGI [7] | TGI [8] | TGI [9] | TGI [10] | TGI [11] | TGI [12] | TGI [13] | TGI [14] | TGI [15] | TGI [16] | TGI [17]
83.8 µM: TGI [6]

COc1cccc(NC(=O)CSc2nnc(Cc3ccccc3)o2)c1
> 100 µM: TGI [1] | TGI [2] | TGI [3] | TGI [4] | TGI [6] | TGI [7] | TGI [8] | TGI [9] | TGI [10] | TGI [12] | TGI [13] | TGI [14] | TGI [16] | TGI [17]
